Assay results as given in US20050085554A1, “Methods of treating disease through the administration of a manzamine analog or derivative” (priority 2003, published 2005).
≈ marks a conversion by molar mass, not a printed value.

Legend:
[1] = system: Plasmodium falciparum (D6 clone); experiment: Antimalarial activity in vitro, D6 clone; format: cell-based
[2] = system: P. falciparum (chlorine-resistant W2 clone); experiment: Antimalarial activity in vitro, W2 clone; format: cell-based, Plasmodium falciparum
[3] = system: Leishmania donovani; experiment: Antileishmanial activity in vitro; format: cell-based
[4] = system: Mycobacterium intracellulare; experiment: Activity against M. intracellulare; format: cell-based; conditions: for IC50 M. intracellulare: T5, NA = not active
[5] = system: Mycobacterium tuberculosis H37Rv; experiment: In vitro antimycobacterial activity (Microplate Alamar Blue Assay), MIC; format: cell-based; conditions: T4
[6] = system: HIV-1LAV; experiment: Anti-HIV-1 activity in PBM cells; format: cell-based, human immunodeficiency virus (HIV-1); conditions: T5
Experimental: Anti-HIV-1 activity was determined in PBM cells as described previously. See, Stock solutions (20 or 40 mM) of the compounds were prepared in sterile DMSO and then diluted to the desired concentration in growth medium. Cells were infected with the prototype HIV-1LAV at a multiplicity of infection of 0.1. Details on the infection of cells and assessment of antiviral effects was described previously. See, Schinazi, R. F.; McMillan, A.; Cannon, D.; Mathis, R.; Lloyd, R. M.; Peck, A.; Sommadossi, J.-P.; Clair, M. S.; Wilson, J.; Furman, P. A.; Painter G.; Choi, W.-B.; Liotta, D. C. Antimicrob. Agents Chemother. 1992, 36, 2423-2431 and Schinazi, R. F.; Sommadossi, J.-P.; Saalmann, V.; Cannon, D. L.; Xie, M.-Y.; Hart, G. C.; Smith, G. A.; Hahn, E. F. Antimicrob. Agents Chemother. 1990, 34, 1061-1067.

[7] = system: Cryptococcus neoformans; experiment: Antifungal activity against Cryptococcus neoformans; format: cell-based; conditions: T5; NA = not active
[8] = system: Staphylococcus aureus; experiment: Antibacterial activity against S. aureus; format: cell-based; conditions: T5; NA = not active
[9] = system: methicillin-resistant Staphylococcus aureus; experiment: Antibacterial activity against MRS; format: cell-based; conditions: T5; NA = not active

12-O-methylmanzamine-A was tested, and the “Plasmodium falciparum (D6 clone) IC 50” value ([1]; T7) was 1.9 µg/mL, the “P. falciparum (chlorine-resistant W2 clone) IC 50” value (shortened to “P. falciparum”) ([2]; T7) was 1 µg/mL and the “Leishmania donovani IC 50” value ([3]; T7) was 6.5 µg/mL. The “Leishmania donovani IC 90” value ([3]; T7) was 16 µg/mL, the “M. intracellulare IC50” value ([4]; T7, first value of a cell '2.0/5.0') was 2.0 µg/mL and the “M. intracellulare, second value of the cell (presumably MIC)” value ([4]; T7, value after the slash under head IC50) was 5.0 µg/mL.

`Oc1cccc2c1[nH]c1c(C3=C[C@@]4(O)CC/C=C\CCCCN5CCC3[C@]3(CC6/C=C\CCCCN6[C@H]34)C5)nccc12` (single isomer, unassigned; (+)) [(+)-8-Hydroxymanzamine A] was tested, and the “Mycobacterium Tuberculosis (H37Rv) MIC” value [5] was 0.91 µg/mL, the EC50 [6] was 0.59 µM and the “Antifungal IC50 C. neoformans” value [7] was 3.0 µg/mL. The “Plasmodium falciparum (D6 clone) IC 50” value ([1]; T4, NA = not active) was 0.006 µg/mL, the “P. falciparum” value ([2]; T4, NA = not active) was 0.008 µg/mL and the “Leishmania donovani IC 50” value ([3]; T4) was 6.2 µg/mL. The “Leishmania donovani IC 90” value ([3]; T4) was 11 µg/mL, the “Antibacterial IC50 S. aureus” value [8] was 0.9 µg/mL and the “Antibacterial IC50 MRS” value [9] was 4.0 µg/mL. The “IC50 M. intracellulare” value [4] was 1.0 µg/mL (≈ 1.77 µM).

With `O=C1CCCN2[C@@H](CC1)C[C@]13CN4CCCC/C=C\CC[C@](O)(C=C(c5nccc6c5[nH]c5ccc(O)cc56)[C@@H]1CC4)[C@H]23` [6-Hydroxymanzamine E] the “Mycobacterium Tuberculosis (H37Rv) MIC” value [5] was 0.4 µg/mL, the “Antifungal IC50 C. neoformans” value [7] was 5.5 µg/mL and the “Plasmodium falciparum (D6 clone) IC 50” value ([1]; T4, NA = not active) was 0.78 µg/mL. The “P. falciparum” value ([2]; T4, NA = not active) was 0.87 µg/mL, the “Leishmania donovani IC 50” value ([3]; T4) was 2.5 µg/mL and the “Leishmania donovani IC 90” value ([3]; T4) was 4.3 µg/mL. For the same compound, the “IC50 M. intracellulare” value [4] was 3.5 µg/mL (≈ 6.03 µM).

In the case of `O=C1CCCN2C3C45C=C(c6nccc7c6[nH]c6ccccc67)C6CCN(CCCC/C=C\CC4)CC63C[C@@]2(CC1)O5` (some centres unmarked) [12,34-Oxamanzamine E], the EC50 [6] is reported as 17.5 µM.

With `CCCCOC12C=C(c3nccc4c3[nH]c3ccccc34)C3CCN(CCCCC=CCC1)CC31CC3C=CCCCCN3C21` (centres unmarked) [12-O-butylmanzamine-A] the “Leishmania donovani IC 50” value ([3]; T7) was 4.7 µg/mL and the “Leishmania donovani IC 90” value ([3]; T7) was 9.1 µg/mL.

For `CCOC12C=C(c3nccc4c3[nH]c3ccccc34)C3CCN(CCCCC=CCC1)CC31CC3C=CCCCCN3C21` (centres unmarked) [12-O-ethylmanzamine-A], the “Leishmania donovani IC 50” value ([3]; T7) was 2.8 µg/mL and the “Leishmania donovani IC 90” value ([3]; T7) was 8.2 µg/mL.

For `CC(C)COC12C=C(c3nccc4c3[nH]c3ccccc34)C3CCN(CCCCC=CCC1)CC31CC3C=CCCCCN3C21` (centres unmarked) [12-O-isobutylmanzamine-A], the “Leishmania donovani IC 50” value ([3]; T7) was 0.98 µg/mL and the “Leishmania donovani IC 90” value ([3]; T7) was 2.6 µg/mL.

In the case of `CCCOC12C=C(c3nccc4c3[nH]c3ccccc34)C3CCN(CCCCC=CCC1)CC31CC3C=CCCCCN3C21` (centres unmarked) [12-O-propylmanzamine-A], the “Leishmania donovani IC 50” value ([3]; T7) is reported as 4.5 µg/mL and the “Leishmania donovani IC 90” value ([3]; T7) is reported as 8.7 µg/mL.

With `COc1ccc(OC)c(NC2CCCN3C(CC2)C[C@]24CN5CCCC/C=C\CC[C@](O)(C=C(c6nccc7c6[nH]c6c(O)cccc67)C2CC5)[C@H]34)c1` (some centres unmarked) [33-(2,5-dimethoxyaniline)-manzamine-F] the “Plasmodium falciparum (D6 clone) IC 50” value ([1]; T8, NA not defined) was 1.7 µg/mL and the “P. falciparum” value ([2]; T8) was 2.6 µg/mL.

For `Oc1cccc2c1[nH]c1c(C3=C[C@@]4(O)CC/C=C\CCCCN5CCC3[C@]3(CC6CCC(NCc7ccc(Cl)cc7)CCCN6[C@H]34)C5)nccc12` (some centres unmarked) [33-(p-chlorobenzylamino)-manzamine-F], the “Plasmodium falciparum (D6 clone) IC 50” value ([1]; T8, NA not defined) was 0.68 µg/mL and the “P. falciparum” value ([2]; T8) was 1.3 µg/mL.

`C[C@@H]1CC[C@H]2[C@@H](C)C(=O)O[C@@H]3O[C@@]4(C)CC[C@@H]1[C@]32OO4` [Artemisinin, reference compound] showed an IC50 ([1]; Plasmodium falciparum, D6, T4, NA = not active, read-out: Plasmodium falciparum (D6 clone) IC 50) of 0.01 µg/mL (≈ 0.0354 µM) and an IC50 ([2]; Plasmodium falciparum, W2, T4, NA = not active, read-out: P. falciparum (chlorine-resistant W2 clone) IC 50) of 0.0063 µg/mL (≈ 0.0223 µM).
